US9108905B2, “TRPA1 antagonists” (AbbVie Inc., priority 2008, dated 2015)

How the values were obtained:
[1] = Pharmacokinetics after oral dose in fasted male Sprague-Dawley rats (plasma and brain); assay type: in vivo; details: rat
Description: Groups of three fasted male Sprague-Dawley rats received a 10 μmol/kg ([…]) oral dose of the test compound, administered by gavage. The compounds were prepared as a solution in a 10% DMSO/poly(ethylene glycol)-400 (v/v). Blood samples were obtained from each animal at various time points up to eight hours after dosing.
Test compound was selectively extracted from plasma and brain homogenate using liquid-liquid extraction with tert-butylmethylether. The compounds of interest were separated from co-extracted contaminants on a 50×3 mm, Luna CN column (Phenomenex), with an acetonitrile:0.1% aqueous trifluoroacetic acid mobile phase at a flow rate of 0.35 ml/min. Plasma concentrations were determined by HPLC-MS/MS on an API2000 with Turbo Ion Spray interface, with MRM detection in the positive ionization mode. To calibrate compound concentration, a separate portion of each tissue sample was spiked with a known quantity of test compound and analyzed simultaneously with the samples.

[2] = Plasma concentration measured in the osteoarthritis grip force model; assay type: in vivo, rats
From the text: (§1) FIG. 1—depicts the effect of Example 1 on hindlimb grip force in osteoarthritic rats measurement system (Columbus Instruments, Columbus, Ohio). […] During testing, each rat was gently restrained by grasping around its rib cage and then allowed to grasp the wire mesh frame (10-12 cm^2) attached to the strain gauge. The experimenter then moved the animal in a rostral-to-caudal direction until the grip was broken. Each rat was sequentially tested twice at approximately 2-minute interval to obtain a raw mean grip force (CFmax). This raw mean grip force data was in turn converted to a maximum hind limb compressive force (CFmax) (gram force) per kg body weight for each animal. A group of age matched naïve animals was added to each experiment and the data obtained from the different dose groups for the compound being tested were compared to the naïve group. […] At the 100 μmol/kg dose in the osteoarthritis grip force model, the measured plasma concentration of Example 1 was 6.2 μM.

[3] = tested on: osteoarthritic rats; test: Effects on hind limb grip force in MIA-induced osteoarthritic rats; assay type: in vivo
Description: Unilateral knee joint osteoarthritis was induced in the rats by a single intra-articular (i.a.) injection of sodium monoiodoacetate (MIA) (Sigma, St. Louis, Mo.) (3 mg in 0.05 mL sterile isotonic saline) into the joint cavity using a 26G needle under light (2-4%) halothane (Halocarbon Laboratories, River Edge, N.J.) anesthesia. Following injection, the animals were allowed to recover from the effects of anesthesia (usually 5-10 minutes) before returning them to their home cages. Animals were tested 21 days after MIA injection. Measurements of peak hind limb grip force were conducted by recording the maximum compressive force exerted on the hind limb strain gauge setup, in a commercially available grip force
as §1, with “(CFmax).” for “(CFmax). This raw mean grip force data was in turn converted to a maximum hind limb compressive force (CFmax) (gram force) per kg body weight for each animal. A group of age matched naïve animals was added to each experiment and the data obtained from the different dose groups for the compound being tested were compared to the naïve group.”

[4] = target: Human TRPA1 (Homo sapiens (Human), UniProt O75762); test: FLIPR based intracellular Ca2+ assay and membrane potential assay, inhibition of AITC-activated TRPA1; assay type: cell-based; details: Table 1, AITC as agonist, HEK293-F cells transiently expressing human TRPA1
Sequence of Human TRPA1 (O75762 whole entry): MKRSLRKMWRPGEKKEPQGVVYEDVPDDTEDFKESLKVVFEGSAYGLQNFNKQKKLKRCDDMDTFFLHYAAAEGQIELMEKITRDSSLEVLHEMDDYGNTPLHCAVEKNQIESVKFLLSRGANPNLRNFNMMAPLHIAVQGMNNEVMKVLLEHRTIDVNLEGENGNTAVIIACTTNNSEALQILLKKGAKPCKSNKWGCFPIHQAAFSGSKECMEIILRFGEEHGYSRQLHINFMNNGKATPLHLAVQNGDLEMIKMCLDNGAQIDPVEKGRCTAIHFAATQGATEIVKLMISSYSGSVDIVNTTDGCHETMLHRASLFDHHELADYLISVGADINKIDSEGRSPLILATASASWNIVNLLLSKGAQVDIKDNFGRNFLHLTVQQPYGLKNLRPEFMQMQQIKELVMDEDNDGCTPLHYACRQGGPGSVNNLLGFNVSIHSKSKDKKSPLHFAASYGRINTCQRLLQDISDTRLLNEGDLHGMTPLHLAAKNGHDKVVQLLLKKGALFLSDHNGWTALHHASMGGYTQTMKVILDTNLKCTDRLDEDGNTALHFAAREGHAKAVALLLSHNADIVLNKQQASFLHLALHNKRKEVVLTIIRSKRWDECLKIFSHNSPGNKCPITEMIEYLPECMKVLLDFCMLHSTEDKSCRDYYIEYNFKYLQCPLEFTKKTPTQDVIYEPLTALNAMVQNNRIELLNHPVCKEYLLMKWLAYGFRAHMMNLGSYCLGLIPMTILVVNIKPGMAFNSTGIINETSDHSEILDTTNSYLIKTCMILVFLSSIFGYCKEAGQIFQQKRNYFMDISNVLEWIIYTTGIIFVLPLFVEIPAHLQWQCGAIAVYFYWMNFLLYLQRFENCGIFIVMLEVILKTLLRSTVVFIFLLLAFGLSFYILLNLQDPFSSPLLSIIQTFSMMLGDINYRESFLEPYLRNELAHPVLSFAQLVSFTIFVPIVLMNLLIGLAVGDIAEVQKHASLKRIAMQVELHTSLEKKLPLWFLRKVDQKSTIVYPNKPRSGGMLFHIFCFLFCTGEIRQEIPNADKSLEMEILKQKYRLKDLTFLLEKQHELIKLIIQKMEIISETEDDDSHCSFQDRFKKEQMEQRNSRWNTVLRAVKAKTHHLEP
Description: Molecular biology and transient expression were performed as described in Chen, J. et al., Journal of Biomolecular Screening 2007, 12, 61-69. Briefly, TRPA1 full length cDNA was amplified from human dorsal root ganglia total RNA (BD Bioscience Clontech, Palo Alto, Calif., USA) and was cloned into pcDNA3.1/V5-His Topo vector (Invitrogen, Carlsbad, Calif.). Large scale transient transfection was performed using the FreeStyle™ 293 Expression System as recommended by the manufacturer (Invitrogen). HEK293-F cells were grown in suspension in flasks (cell volume 30 mL to 1 liter) or in a Wave Bioreactor (Wave Biotech, Somerset, N.J.) (6 liters). To support high density, suspension culture and transfection, cells were cultured in FreeStyle 293 media, an optimized, serum free formulation. 293fectin™ (Invitrogen) was used as transfection reagent. In a transfection of 3×10^7 cells (30 mL volume), 30 μg of plasmid DNA and 40 μL 293 fectin were used. For a larger volume transfection, each reagent was scaled up proportionally. Two days post-transfection, cells were harvested by centrifugation (1000×g, 5 minutes) and resuspended to a density of 1.5×10^7 cells/mL in freezing medium (Freestyle media/10% serum/10% DMSO). Cells were transferred into cryovials in 2 mL aliquots, and these vials were placed in Nalgene Mr. Frosty slow-freeze devices (Sigma-Aldrich, St. Louis, Mo.) at −80° C. As needed, vials were removed from −80° C. and quickly thawed in a 37° C. water bath. Cells were aseptically transferred into conical tubes containing Freestyle media (10 mL/vial). After centrifugation at 1,000×g for 3-5 minutes, medium was removed by aspiration and cells were resuspended in Freestyle medium at desired densities (typically 1×10^6 cells/mL). Re-suspended cells were seeded into black-walled clear-bottom 96-well Biocoat™ poly-D-lysine assay plates (BD Biosciences, Bedford, Mass.)(10^5 cells/well) and incubated overnight at 37° C. under a humidified 5% CO2 atmosphere.
FLIPR Based Intracellular Ca^2+ Assay and Membrane Potential Assay
Ca^2+ influx was measured using a FLIPR calcium assay kit (R8033; Molecular Devices, Sunnyvale, Calif.). The Ca^2+ indicator dye was dissolved in Hanks' balanced salt solution supplemented with 20 mM HEPES buffer (HBSS/HEPES) according to the manufacturer instructions. […] (4×) solutions of the test compounds were prepared in HBSS/HEPES, and 50 μL were added to the cells at a delivery rate of 10 μL/sec. Changes in fluorescence were measured over time in a fluorometric imaging plate reader (FLIPR, Molecular Devices). Two additions were made over the course of an experimental run. For agonist experiments, assay buffer was added at the 10 s time point, followed by addition of agonist at the 3 minute 10 sec time point. For antagonist experiments, the antagonist was added at the 10 sec time point, followed by addition of the agonist 3 minutes later. Final assay volume for both the agonist and antagonist experiments was 200 μL. Total length of an experimental run was 6.5 minutes.
Data was analyzed with GraphPad Prism® software (GraphPad Software, San Diego, Calif.), using a four-parameter logistic Hill equation to curve-fit concentration-effect data and derive EC50 or IC50 values. Numerical values are reported as mean±SEM (n=number of experiments). SEM is calculated by dividing the standard deviation by the square root of the sample size […].
Changes in membrane potential were measured in hTRPA1-expressing LSTT cells using a FLIPR membrane potential assay kit (R8034, Molecular Devices). The procedure for thawing and plating the LSTT cells was identical to the Ca^2+ influx assay (see above). The membrane potential dye was dissolved in HBSS/HEPES buffer according to the manufacturer's instructions, and then cells were loaded with dye (100 μL/well) for 45 minutes to 2 hours at room temperature.

Compound | IC50 [4] | also measured
CCC(=N\O)/C(C)=C/c1ccc(F)cc1 [Example 1, (1E,3E)-1-(4-fluorophenyl)-2-methylpent-1-en-3-one oxime] |  | Cmax ([1]; 10 umol/kg, oral, plasma): 720 nM; Kp ([1]; brain and plasma, 10 μmol/kg, after oral administration, text calls it brain/plasma ratio): 1.2; bioavailability ([1]; plasma, 10 umol/kg, oral gavage, solution in 10% DMSO/PEG-400): 38%; measured plasma concentration ([2]; 100 μmol/kg oral dose, osteoarthritis grip force model): 6.2 µM; plasma and brain exposure ([2]; with increasing oral dose, rat): excellent plasma and brain exposure; ED50 ([3]; Rattus norvegicus, po, 21 days after MIA injection, 95% CI 79-158 μmol/kg, read-out: ED50, hindlimb grip force): 112 µmol/kg; efficacy in osteoarthritis grip force model ([3]; p.o.): fully efficacious
CCC(=N\O)/C(C)=C/c1ccc(F)c(F)c1 [Example 14, (1E,3E)-1-(3,4-difluorophenyl)-2-methylpent-1-en-3-one oxime] | 0.574 µM | 
CC(/C=C/c1ccc(F)cc1)=N\O [Example 11, (2E,3E)-4-(4-fluorophenyl)but-3-en-2-one oxime] | 20.6 µM | 
CCCC(=N\O)/C(C)=C/c1ccc(F)cc1 [Example 4, (1E,3E)-1-(4-fluorophenyl)-2-methylhex-1-en-3-one oxime] | 0.5 µM | 
CC(=C\c1ccc(F)cc1)/C(=N/O)C(C)C [Example 8, (1E,3E)-1-(4-fluorophenyl)-2,4-dimethylpent-1-en-3-one oxime] | 3.3 µM | 
CCC(=N\O)/C(C)=C/c1ccc(F)c(C(F)(F)F)c1 [Example 18, (1E,3E)-1-[4-fluoro-3-(trifluoromethyl)phenyl]-2-methylpent-1-en-3-one oxime] | > 100 µM | 
CC(=C\c1ccc(F)cc1)/C(=N\O)C(C)C [Example 7, (1E,3Z)-1-(4-fluorophenyl)-2,4-dimethylpent-1-en-3-one oxime] | 0.85 µM | 
CCCCC(/C=C/c1ccc(F)cc1)=N\O [Example 16, (1E,3E)-1-(4-fluorophenyl)hept-1-en-3-one oxime] | > 100 µM | 
CCC(=N\O)/C(C)=C/c1cc(F)c(F)c(F)c1 [Example 15, (1E,3E)-2-methyl-1-(3,4,5-trifluorophenyl)pent-1-en-3-one oxime] | 4.67 µM | 
CCCCC(=N\O)/C(C)=C/c1ccc(F)cc1 [Example 6, (1E,3E)-1-(4-fluorophenyl)-2-methylhept-1-en-3-one oxime] | 4.4 µM | 
CC(=C\c1ccc(F)cc1)/C(=N/O)C(C)(C)C [Example 5, (1E,3E)-1-(4-fluorophenyl)-2,4,4-trimethylpent-1-en-3-one oxime] | 8 µM | 
CCC(=N\O)/C(C)=C/c1ccccc1F [Example 3, (1E,3E)-1-(2-fluorophenyl)-2-methylpent-1-en-3-one oxime] | 4.6 µM | 
CCC(=N\O)/C(C)=C/c1ccc(F)c(C)c1 [Example 17, (1E,3E)-1-(4-fluoro-3-methylphenyl)-2-methylpent-1-en-3-one oxime] | > 100 µM | 
CCCC(/C=C/c1ccc(F)cc1)=N\O [Example 12, (1E,3E)-1-(4-fluorophenyl)hex-1-en-3-one oxime] | 5.91 µM | 
(1E,3E)-1-(4-fluorophenyl)pent-1-en-3-one oxime and (1E,3Z)-1-(4-fluorophenyl)pent-1-en-3-one oxime, about 1:1 mixture [Example 13] | 9.46 µM | 
CCC(=N\O)/C(C)=C/c1ccc(F)c(Cl)c1 [Example 9, (1E,3E)-1-(3-chloro-4-fluorophenyl)-2-methylpent-1-en-3-one oxime] | 6 µM | 
